The values below come from patent publication US20060276385A1, “Anti-inflammatory agents and methods of their use” (priority 2003, published 2006).

Assay [1] has as its system MAEC. As to the kind of experiment: Monocyte adhesion: THP-1 monocytes bound to mouse aortic endothelial cells. Type of assay: cell-based. Here is the method: (§1) Endothelial cells: Mouse aortic endothelial cells (MAEC) were cultured and used at passages 4-8 as described (Cai, H., et al. (2002) J Bio Chem 107, 48311-48317). Human aortic endothelial cells (HAEC) purchased from Clonetics were cultured using EGM-2 bullet kit (Clonetics) and used at passages 4-8. Alternatively, endothelial cells obtained from the thoracic aortas of C57/BL6 control (MAE-wt) and p47^phox-null mice (MAE-p47^−/−) were isolated and cultured as described previously (Hwang, J. et al. (2003) J Biol Chem 278:47291-8), and used between passages 4-10.
Shear stress studies: Confluent endothelial monolayers grown in 100 mm tissue culture dishes were exposed to an arterial level of uni-directional LS (15 dyn/cm^2) in the growth medium by rotating a Teflon cone (0.5° cone angle) as described previously. To mimic unstable shear conditions in vivo, endothelial cells were exposed to OS with directional changes of flow at 1 Hz cycle (±5 dyn/cm^2) by rotating the cone back-and-forth using a stepping motor (Servo Motor) and a computer program (DC Motor Company, Atlanta, Ga.). In some studies, 5 dyn/cm^2 unidirectional LS was used for comparison to OS (±5 dyn/cm^2).
(§2) Monocyte Adhesion: Monocyte binding was determined under no-flow conditions using THP-1 monocytes (ATCC) by the method described by Chappel et al (Chappell, D. C., et al. (1998) Circ Res 82, 532-539). Briefly, THP-1 cells (5×10^5 cells/ml) were labeled with a fluorescent dye 2′,7′-bis(carboxyethyl)-5(6)-carboxyfluorescein-AM (BCECF, Molecular Probes) (1 mg/ml) in serum-free RPMI medium for 45 min at 37° C. Following exposure to shear stress or BMP treatments in the presence or absence of noggin or vehicle, the endothelial cells were washed in RPMI medium before adding BCECF-loaded THP-1 cells (1:1 ratio). After a 30 min incubation at 37° C. under no-flow conditions, unbound monocytes were removed by washing the endothelial dishes 5 times with Hank's PBS. Bound monocytes were quantified by either counting the cells under a fluorescent microscope or by measuring the fluorescent intensity of cell lysates by fluorescence spectrophotometry using a plate reader. […] Some studies were performed with MAEC pretreated with 5 μg/ml of mouse-ICAM1 antibody (YN1, Southern Biolechonology) (Kevil, C. G., et al. (2001) Am J Physiol Cell Physiol 281, C1442-1447).
In FIG. 7B, confluent MAE-wt cells were pre-incubated with cell-permeable PEG-catalase (Catalase, 100 U/ml for 18 hrs) or Tiron (10 μmol/L for 1 hr). Cells were then incubated with 20 ng/ml BMP4 or vehicle for additional 18 hrs. The treated cells in 7A and 7B were washed, and fluorescently-labeled THP-1 monocytes were added. Unbound THP-1 cells were washed after 30 min, and bound monocytes were counted with a fluorescence microscope using a 10× objective (5-10 different fields per dish). […] As a positive control, monocyte binding was determined using MAE-wt treated with TNF-α(100 U/ml for 2hrs).

The test system of assay [2] is MAE-p47−/− cells. As to the kind of experiment: Monocyte adhesion to p47phox-null endothelial cells, with or without p47phox transfection. It counts as cell-based, mouse. The note with it: 18 hrs. The protocol:
as §1, §2
Transfection of p47phox: In some studies MAE-p47^−/− cells were trasnfected withp47phox expression vector or an empty vector as described (Hwang, J. et al. (2003) J Biol Chem278-47291-8).
Next, monocyte adhesion was determined in these cells. […] After 18 hrs, cells were washed and monocyte binding was determined as described in FIG. 7. […]

Assay [3] deals with MAE-wt cells. As to the kind of experiment: O2− assay by electron spin resonance spectroscopy with CMH spin probe. Type of assay: cell-based, mouse. As to conditions: MAE-wt cells, BMP4 200 ng/ml for 18 hrs, SOD-inhibitable CM signal. The protocol: O2^− Assay: O2^− production was determined by electron spin resonance spectroscopy using methoxycarbonyl-2,2,5,5-tetramethyl-pyrrolidine (CMH) as a spin probe in the presence or absence of PEG-superoxide dismutase (PEG-SOD; 50 U/ml) to quantify the SOD-inhibitable portions of CM.
In FIG. 10A immediately following treatment of MAE wt cells with BMP4 (200 ng/ml) for 18 hrs, cells were trypsinized and reconstituted in Krebs-Hepes buffer. Equal number of cells was incubated with a spin trap CMH in the presence or absence of PEG-SOD (50 U/mL). The specific O2^− production was calculated by subtracting SOD-inhibitable portions from total O2^− production as determined by following CM production (mean±SEM, n=3, *p<0.05).

As for BMP4, the “monocyte adhesion above vehicle control” value in assay [1] (MAE-wt cells, BMP4 20 ng/ml, 18 hrs) was in the range of 5 to 6 fold. For the same substance, the “effect on LS inhibition of monocyte adhesion” value in assay [1] (MAEC sheared (LS) 24 hrs in medium supplemented with BMP4) is on record as “inhibitory effect of LS on monocyte adhesion was lost”. Moreover, in assay [1] (MAEC treated with increasing concentrations of BMP4 for 24 hr (overnight)), the “monocyte binding, maximum activation over control” value is on record as 4 to 7 fold. In assay [1] (MAEC, 24 hr), the “BMP4 concentration inducing maximum effect on monocyte adhesion” value was 50 ng/mL and the “lowest BMP4 concentration inducing a statistically significant increase in monocyte adhesion” value was 0.1 ng/mL. Also, in assay [2] (MAE-p47−/− cells transfected with p47phox (rescued), BMP4 20 ng/ml or TNF-α 100 U/ml), the “increase in monocyte adhesion above the control” value is 4- to 5 fold. For the same substance, the monocyte adhesion response entry in assay [2] (MAE-p47−/− cells, BMP4 20 ng/ml) is on record as “failed to stimulate monocyte adhesion”. Also, the “O2− production above control” value in assay [3] was found to be 2.9 fold.
